Experiment [1] relates to E. coli mutants with single substitutions in RNAP β′ or β subunit. Type of experiment: cell-based.
Experiment [2] relates to E. coli with wild-type RNAP β′ and wild-type RNAP β. As to the kind of experiment: microbe, parasite or virus in culture. Type of experiment: cell-based. The conditions noted are these: Escherichia coli.
The test system of experiment [3] is E. coli DH21f2tolC. Type of experiment: cell-based. The note with it: assessed with E. coli DH21f2tolC; J.M. and R.H.E., unpublished.
The target of experiment [4] is T1, wild-type RNAP (Escherichia coli, UniProt P0A8T7+P0A8V2).
Experiment [5] deals with T1, wild-type RNAP. This is another data set of the same source.
Experiment [6] relates to Staphylococcus aureus. The conditions noted are these: ref Irschik et al., 1995; J.M. and R.H.E., unpublished; cited from earlier work.
Experiment [7] concerns Escherichia coli DH21tolC. The note with it: ref Irschik et al., 1995; J.M. and R.H.E., unpublished; cited from earlier work.
For experiment [8], the system named is bacterial RNAP. The conditions noted are these: read-out: IC50, inhibition of bacterial RNAP; cited from earlier work.
Experiment [9] concerns eukaryotic RNAP II. The note with it: cited from earlier work.
Experiment [10] has as its target T2, Myx^r RNAP ([Arg345]β′-RNAP) (Escherichia coli, UniProt P0A8T7+P0A8V2, K345R). The format is biochemical, E. coli.
Experiment [11] deals with T. thermophilus RNAP holoenzyme (Thermus thermophilus, UniProt Q8RQE8+Q8RQE9). The format is biochemical. The note with it: read-out: IC50, inhibition of T. thermophilus RNAP holoenzyme.
Experiment [12] deals with T2, Myx^r RNAP ([Arg345]β′-RNAP).
For experiment [13], the system named is Enterobacter cloacae. The note with it: cited from earlier work.

In brackets after ≈: the same amount, converted by molar mass. Read-outs that look alike come from different tables or passages of the source.

These results are taken from article PMC2580802 (Cell, 2008).

Turning to `CO[C@H]1/C=C/O[C@@]2(C)Oc3c(C)c(O)c4c(O)c(c(/C=N/N5CCN(C)CC5)c(O)c4c3C2=O)NC(=O)/C(C)=C\C=C\[C@H](C)[C@H](O)[C@@H](C)[C@@H](O)[C@@H](C)[C@H](OC(C)=O)[C@@H]1C` [Rif, rifampicin], the “cross-resistance of Myx^r mutants” value in experiment [1] (Myx^r mutants (Table 1)) was “do not exhibit cross-resistance”. Further, the MIC in [2] was 0.1 µg/mL (≈ 0.122 µM).
In general, IC50 refers to the concentration needed to halve the response being measured. On to `C/C(=C\Cc1ccccc1)CC[C@@]1(O)C[C@H]2C[C@@H](C/C(C)=C/C/C=C/C/C(CC(=O)O)=C\C(=O)O2)O1` [Rip, ripostatin A], for which, in [3], the bacteriocidal activity result is “bacteriocidal”. In addition, in [4], the “effect on transcription initiation” value is given as “inhibits transcription initiation”. In addition, the “effect on interaction of RNAP with promoter DNA” value in experiment [5] is on record as “prevents interaction of RNAP with promoter DNA”. The MIC in experiment [6] and in [7] was at most 1 µg/mL throughout. Further, in [8], the IC50 was about 800 nM. Besides, in experiment [9], the “inhibition of eukaryotic RNAP II” value is reported as “does not inhibit”.
As to `CCC/C(C)=C/C=C(\C)C(=O)c1c(O)cc([C@H](C)CC/C=C/NC(=O)OC)oc1=O` [Myx, myxopyronin A], the “increase in MIC” value in experiment [1] (all four Myx^r mutants from random mutagenesis (Table S1)) is given as at least 2 fold; in experiment [1] (three of four Myx^r mutants from random mutagenesis (Table S1)), at least 32 fold. The bacteriocidal activity result in experiment [3] is recorded as “bacteriocidal”. Further, the “inhibition of transcription with Myx^r RNAP” value in experiment [10] is “abrogates inhibition”. Also, the IC50 was 20000 nM in experiment [11]; 1700 ± 600 nM in experiment [4] (read-out: IC50, inhibition of formation of abortive products, run-off transcription, promoter DNA fragment); 800 ± 300 nM in experiment [5] (read-out: IC50, inhibition of formation of stable, heparin-resistant RNAP-promoter open complex, promoter DNA fragment); about 1000 nM in experiment [8]. Moreover, in [5] (fork-junction DNA fragment (lacks positions −11 to +15 of template strand)), the “inhibition of formation of stable, heparin-resistant RNAP-DNA complex” value is reported as “does not inhibit”. Besides, the “inhibition of formation of stable, heparin-resistant RNAP-DNA complexes” value in [5] (nontemplate-strand oligonucleotide (positions −21 to +15)) is given as “does not inhibit”. Further, the “inhibition of open-complex formation with Myx^r RNAP” value in experiment [12] was “abrogates inhibition”. Also, the MIC in [13] was at most 12.5 µg/mL. In addition, in experiment [9], the “inhibition of eukaryotic RNAP II” value is listed as “does not inhibit”.
Take `C/C=C/C/C=C(\C)C(O)CC/C(C)=C/C=C(\C)C(=O)c1c(O)cc([C@H](C)CC/C=C/NC(=O)OC)oc1=O` (stereo partly shown) [Cor, corallopyronin A]: the MIC in experiment [2] was 1.6 µg/mL (≈ 3.03 µM). Moreover, the bacteriocidal activity entry in [3] is reported as “bacteriocidal”. Moreover, in experiment [4], the “effect on transcription initiation” value is “inhibits transcription initiation”. For the same molecule, the “effect on interaction of RNAP with promoter DNA” value in [5] is “prevents interaction of RNAP with promoter DNA”. The IC50 in [8] is about 4000 nM. For the same molecule, the “inhibition of eukaryotic RNAP II” value in [9] is “does not inhibit”.
